# Assays:
# [1] = Displacement of [3H]-(+)-pentazocine from Sigma1 receptor derived from pig brain assessed as inhibition constant measured after 120 mins by scintillation counter analysis; type: tissue-based, Sus scrofa
# [2] = Selectivity index, ratio of IC50 for rat L6 cells to IC50 for Trypanosoma cruzi Tulahuen C4 intracellular amastigote infected in rat L6 cells; type: toxicity, cell-based; conditions: read-out: Ratio IC50
# [3] = test system: Leishmania donovani; test: Antiprotozoal activity against Leishmania donovani MHOM/ET/67/L82 axenic amastigote assessed as parasite growth inhibition incubated for resazurin dye based fluorometry; type: functional, organism-based
# [4] = test system: Plasmodium falciparum; test: Antiprotozoal activity against erythrocytic stage Plasmodium falciparum NF54 assessed as parasite growth inhibition incubated for 48 hrs by [3H]hypoxanthine incorporation assay; type: functional, organism-based
# [5] = test system: Trypanosoma brucei rhodesiense; test: Antiprotozoal activity against Trypanosoma brucei rhodesiense STIB 900 bloodstream trypomastigote assessed as parasite growth inhibition incubated for 70 hrs by resazurin dye based assay; type: functional, organism-based; conditions: STIB 900, 70 h
# [6] = Selectivity index, ratio of IC50 for rat L6 cells to IC50 for Trypanosoma brucei rhodesiense STIB 900 bloodstream trypomastigote; type: toxicity; conditions: read-out: Ratio IC50
# [7] = Selectivity index, ratio of IC50 for rat L6 cells to IC50 for erythrocytic stage Plasmodium falciparum NF54; type: toxicity; conditions: read-out: Ratio IC50
# [8] = Cytotoxicity against rat L6 cells assessed as cell growth inhibition incubated for 70 hrs by Alamar Blue staining based […]; type: toxicity
# [9] = test system: Trypanosoma cruzi; test: Antiprotozoal activity against Trypanosoma cruzi Tulahuen C4 intracellular amastigote infected in rat L6 cells assessed as parasite growth inhibition incubated for 96 hrs in presence of CPRG/Nonidet by photometry; type: functional, organism-based; conditions: Tulahuen C4, L6, 96 h
# [10] = Selectivity index, ratio of IC50 for rat L6 cells to IC50 for Leishmania donovani MHOM/ET/67/L82 axenic amastigote; type: toxicity; conditions: read-out: Ratio IC50
# [11] = Displacement of [14C]lactate from Plasmodium falciparum FNT expressed in Saccharomyces cerevisiae incubated for 24 hrs by liquid scintillation counter method
# [12] = test system: Plasmodium falciparum; test: Antiplasmodial activity against Plasmodium falciparum 3D7 assessed as parasite growth inhibition incubated for 24 hrs by FACS analysis; type: functional, organism-based
# [13] = test system: Plasmodium falciparum; test: Inhibition of Plasmodium falciparum DHODH using DCIP as substrate at 50 uM relative to control
# [14] = test system: Plasmodium falciparum; test: Inhibition of Plasmodium falciparum DHODH assessed as residual activity using DCIP as substrate at 10 uM relative to control
# [15] = test system: Plasmodium falciparum; test: Inhibition of Plasmodium falciparum DHODH assessed as residual activity using DCIP as substrate at 50 uM relative to control
# [16] = test system: Plasmodium falciparum; test: Inhibition of Plasmodium falciparum DHODH using DCIP as substrate at 10 uM relative to control
# [17] = test system: Plasmodium falciparum; test: Antiprotozoal activity against Chloroquine-resistant Plasmodium falciparum K1 assessed as parasite growth inhibition; type: functional, organism-based
# [18] = test system: Plasmodium falciparum; test: Potency index, ratio of Chloroquine IC50 to test compound IC50 for Chloroquine-resistant Plasmodium falciparum K1 assessed as parasite growth inhibition; type: functional
# [19] = test system: Leishmania donovani; test: Antiprotozoal activity against Leishmania donovani MHOM-ET-67/L82 axenic amastigotes assessed as parasite growth inhibition incubated for 70 hrs by resazurin dye based inverted microscopy; conditions: MHOM-ET-67/L82, 70 h
Structure (SMILES),Ki [1] [µM],IC50 [5] [µM],IC50 [9] [µM],selectivity ratio [2],IC50 [3] [µM],IC50 [4] [µM],selectivity ratio [6],selectivity ratio [7],IC50 at 70 h [8] [µM],selectivity ratio [10],IC50 [11] [µM],IC50 [12] [µM],inhibition [13] [%],Activity [14] [%],Activity [15] [%],inhibition [16] [%],IC50 [17] [µM],Ratio IC50 [18],IC50 [19] [µM]
CC1(C)CCc2cc(CNCCc3ccccc3)c3c(c2O1)CCC(C)(C)O3,,0.7,9.1,0.4,12,0.24,5,15,3.5,0.3,,,,,,,,,
COc1ccc(C(=O)/C=C(\O)C(F)(F)C(F)(F)F)c(O)c1,,,,,,,,,,,0.17,0.14,,,,,,,
CC1(C)CCc2cc(CNCc3ccccc3)c(O)cc2O1,,,,,,0.099,,222,22,,,,,,,,,,
CC1(C)CCc2c(ccc(CNCCc3ccccc3)c2O)O1,,6.5,53,0.7,141,0.01,6,3600,36,0.3,,,,,,,,,
CC1(C)CCc2cc(CNCc3ccccc3)c3c(c2O1)CCC(C)(C)O3,,1.4,9.5,0.6,13,0.47,4,12,5.6,0.4,,,,,,,,,
CC1(C)C=Cc2cc(CNCCc3ccccc3)c(O)cc2O1,,0.67,28,2,105,0.076,69,605,46,0.4,,,,,,,,,
CC1(C)C=Cc2cc(CNCc3ccccc3)c(O)cc2O1,,0.91,534,0.1,65,0.16,63,356,57,0.9,,,,,,,,,
C[C@H](NCc1ccccc1)c1cc2c(cc1O)OC(C)(C)C=C2,,,,,,,,,,,,,1,116,96,5,0.01,,
CC(NCCCc1ccccc1)c1cc2c(cc1O)OC(C)(C)C=C2 (racemic),,,,,,,,,,,,,4,116,98,3,0.886,13,
CC1(C)CCc2cc(C(O)CNCc3ccccc3)c(O)cc2O1 (stereo not drawn),,6.4,48,1,54,0.1,7,460,46,0.9,,,,,,,,,
C[C@@H](NCc1ccccc1)c1cc2c(cc1O)OC(C)(C)C=C2,,,,,,,,,,,,,1,110,91,3,0.02,,
CC1(C)C=Cc2cc(CNCCCc3ccccc3)c(O)cc2O1,,1.01,28,1,43,0.081,28,346,28,0.7,,,,,,,,,
CCCCCCCCCCCCCCCCOP(=O)([O-])OCC[N+](C)(C)C [MILTEFOSINE],,,,,,,,,,,,,,,,,,,0.471
CC1(C)CCc2cc(CNCCc3ccccc3)c(O)cc2O1,,,,,,0.081,,531,43,,,,,,,,,,
CC(NCc1ccccc1)c1cc2c(cc1O)OC(C)(C)C=C2 (racemic),,,,,,,,,,,,,,,,,0.026,26,

# Now from value to molecule, other results behind:
Ki [1] [µM],IC50 [5] [µM],IC50 [9] [µM],Structure (SMILES),selectivity ratio [2],IC50 [3] [µM],IC50 [4] [µM],selectivity ratio [6],selectivity ratio [7],IC50 at 70 h [8] [µM],selectivity ratio [10],IC50 [11] [µM],IC50 [12] [µM],inhibition [13] [%],Activity [14] [%],Activity [15] [%],inhibition [16] [%],IC50 [17] [µM],Ratio IC50 [18],IC50 [19] [µM]
0.0024,,,COCOc1cc2c(cc1CCCNCc1ccccc1)CCC(C)(C)O2,,,,,,,,,,,,,,,,
0.0048,4.6,15,CC1(C)CCc2cc(CCCNCc3ccccc3)c(O)cc2O1,2,15,0.98,5,24,24,2,,,,,,,,,
,5.3,28,CC1(C)CCc2cc(C(O)CNCCCc3ccccc3)c(O)cc2O1 (stereo not drawn),0.9,36,0.017,5,1470,25,0.7,,,,,,,,,
,0.83,5.2,CC1(C)CCc2cc(CNCCCc3ccccc3)c3c(c2O1)CCC(C)(C)O3,0.5,11,0.37,3,7,2.6,0.2,,,,,,,,,
,0.54,5.4,CC1(C)CCc2cc(CNCCCCc3ccccc3)c3c(c2O1)CCC(C)(C)O3,0.6,4.9,0.21,6,15,3.2,0.7,,,,,,,,,
,22,57,CC1(C)CCc2c(ccc(CNCc3ccccc3)c2O)O1,1,52,0.053,3,1130,60,1,,,,,,,,,
,3.4,31,CC1(C)CCc2c(ccc(CNCCCc3ccccc3)c2O)O1,0.9,52,0.15,8,180,27,0.5,,,,,,,,,
,3.4,18,CC1(C)CCc2c(ccc(CNCCCCc3ccccc3)c2O)O1,0.8,42,0.18,4,83,15,0.4,,,,,,,,,
,0.46,13,CC1(C)CCc2cc(CNCCCCc3ccccc3)c(O)cc2O1,1,138,0.07,33,214,15,0.1,,,,,,,,,
,1.09,17,CC1(C)C=Cc2cc(CNCCCCc3ccccc3)c(O)cc2O1,1,25,0.079,17,241,19,0.8,,,,,,,,,

# From ChEMBL document CHEMBL5096178, “Synthesis and Biological Evaluation of Natural-Product-Inspired, Aminoalkyl-Substituted 1-Benzopyrans as Novel Antiplasmodial Agents” (J Med Chem, 2021)
